Reference: patent US6737383B1, “Herbicidal oxadiazolidines” (priority 1999, dated 2004)

Columns and labels:
bedstraw = assay: Test B pre/postemergence bedstraw; assay type: in vivo, Galium aparine
In short: (§1)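 Test chemicals in a non-phytotoxic solvent mixture with surfactant were sprayed preemergence onto planted seeds and postemergence onto plants 2 to 18 cm tall (1- to 4-leaf stage). After twelve to sixteen days in a greenhouse, injury was visually rated against untreated controls from 0 (no effect) to 10 (complete control).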

surinam grass = assay: Test B pre/postemergence surinam grass; assay type: in vivo, Brachiaria decumbens
In short: as §1

wild oat [1] = assay: Test B pre/postemergence wild oat; assay type: in vivo, Avena fatua
In short: as §1

bamyardgrass = assay: Test B flood test barnyardgrass; assay type: in vivo, Echinochloa crus-galli
In short: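 Plants were grown to the 2-leaf stage before treatment with test chemical, then held in a greenhouse for twelve to sixteen days. Injury was visually rated against untreated controls on a 0–10 scale, where 0 is no effect and 10 is complete control.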

goosegrass = assay: Test D goosegrass; assay type: in vivo, Eleusine indica; settings: Preemergence, 0 to 100 scale
In short: (§2)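 Weed seeds planted in sandy loam; species kept apart in individual pots or compartments. Preemergence tests: treatment to soil surface within one day. Greenhouse growth, then visual injury scoring at 14–21 days (0–100).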

Johnson grass = assay: Test D Johnson grass; assay type: in vivo, Sorghum halepense; settings: Preemergence, 0 to 100 scale
In short: as §2

sandbur = assay: Test D sandbur; assay type: in vivo, Cenchrus echinatus; settings: Preemergence, 0 to 100 scale
In short: as §2

tall mallow = assay: Test D tall mallow; assay type: in vivo, Malva sylvestris; settings: Preemergence, 0 to 100 scale
In short: as §2

winter wheat [2] = assay: Test E winter wheat; assay type: in vivo, Triticum aestivum; settings: Postemergence; for Plant response rating, Wheat (winter): 0 to 100 scale
In short: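 For postemergence, sowings are timed so plants reach the 1- to 4-leaf stage at spraying. Test compound is applied in a surfactant-containing solvent mixture that is non-phytotoxic. Response is judged by eye against untreated controls after approximately 21 to 28 days.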

blackgrass = assay: Test E blackgrass; assay type: in vivo, Alopecurus myosuroides; settings: Preemergence
green foxtail = assay: Test E green foxtail; assay type: in vivo, Setaria viridis; settings: Preemergence
Italian ryegrass = assay: Test E Italian ryegrass; assay type: in vivo, Lolium multiflorum; settings: Preemergence
winter wheat [3] = assay: Test E winter wheat; assay type: in vivo, Triticum aestivum; settings: Preemergence
wild oat [4] = assay: Test E wild oat; assay type: in vivo, Avena fatua; settings: Preemergence
winter barley = assay: Test E winter barley; assay type: in vivo, Hordeum vulgare; settings: Preemergence
[5] = Preemergence, Rate 62 g/ha, scale of 0 to 10 where 0 is no effect and 10 is complete control
[6] = Preemergence, Rate 250 g/ha, scale of 0 to 10 where 0 is no effect and 10 is complete control
[7] = Preemergence, Rate 500 g/ha, scale of 0 to 10 where 0 is no effect and 10 is complete control
[8] = Rate 62 g/ha, Postemergence, scale of 0 to 10 where 0 is no effect and 10 is complete control
[9] = Rate 125 g/ha, Preemergence, scale of 0 to 10 where 0 is no effect and 10 is complete control
[10] = Rate 500 g/ha, Postemergence, scale 0 to 10, 0 no effect, 10 complete control
[11] = Rate 16 g/ha, 0 no injury, 100 complete control
[12] = Rate 32 g/ha, 0 no injury, 100 complete control
[13] = Rate 64 g/ha, 0 no injury, 100 complete control
[14] = Rate 125 g/ha, 0 no injury, 100 complete control
[15] = Rate 31 g/ha, 0 to 100 scale, 0 no effect, 100 complete control
[16] = Rate 62 g/ha, 0 to 100 scale, 0 no effect, 100 complete control
[17] = Rate 125 g/ha, 0 to 100 scale (0 no effect, 100 complete control)
[18] = Rate 500 g/ha, 0 to 100 scale where 0 is no effect and 100 is complete control

`CC(C)N(C(=O)n1oc(=O)n(C2CC2)c1=O)c1ccc(F)cc1` [Compound 242] was tested, and the “Bedstraw plant response rating” value (bedstraw; [5]) was 0, the “Bedstraw plant response rating” value (bedstraw; [6]) was 9 and the “Plant response rating, Bedstraw” value (bedstraw; [7]) was 10. For the same molecule, the “Bedstraw plant response rating” value (bedstraw; [8]) was 2, the “Bedstraw plant response rating” value (bedstraw; Rate 125 g/ha, Postemergence, scale 0 to 10) was 5 and the “Bedstraw plant response rating” value (bedstraw; [9]) was 7. For the same molecule, the “Plant response rating (0 to 10; 0 is no effect, 10 is complete control), Bedstraw” value (bedstraw; Rate 250 g/ha, Postemergence) was 7, the “Bedstraw plant response rating” value (bedstraw; [10]) was 8 and the “B. signalgrass plant response rating” value (surinam grass; [5]) was 6. The “B. signalgrass plant response rating” value (surinam grass; [6]) was 9, the “Plant response rating, B. signalgrass” value (surinam grass; [7]) was 10 and the “B. signalgrass plant response rating” value (surinam grass; [8]) was 1. The “B. signalgrass plant response rating” value (surinam grass; Rate 125 g/ha, Postemergence, scale 0 (no effect) to 10 (complete control)) was 8, the “B. signalgrass plant response rating” value (surinam grass; [9]) was 9 and the “Plant response rating (0 to 10; 0 is no effect, 10 is complete control), B. signalgrass” value (surinam grass; Rate 250 g/ha, Postemergence) was 8. For the same molecule, the “B. signalgrass plant response rating” value (surinam grass; [10]) was 9, the “Wild oats plant response rating” value (wild oat [1]; [5]) was 7 and the “Wild oats plant response rating” value (wild oat [1]; [6]) was 9. The “Plant response rating, Wild oats” value (wild oat [1]; [7]) was 10, the “Wild oats plant response rating” value (wild oat [1]; [8]) was 0 and the “Wild oats plant response rating” value (wild oat [1]; [9]) was 9. The “Wild oats plant response rating” value (wild oat [1]; [10]) was 8, the “Barnyardgrass plant response rating” value (bamyardgrass; Rate 62 g/ha, headed Pre-emergence (flood test species), scale 0 to 10 (0 no effect, 10 complete control)) was 0 and the “Barnyardgrass plant response rating” value (bamyardgrass; Rate 125 g/ha, Pre-emergence, flood test species, scale 0 to 10 where 0 is no effect and 10 is complete control) was 0. For the same molecule, the “Barnyardgrass plant response rating” value (bamyardgrass; Rate 250 g/ha, Pre-emergence, flood-test species, scale 0 to 10, 0 is no effect, 10 is complete control) was 0, the “Barnyardgrass plant response rating” value (bamyardgrass; Rate 500 g/ha, Pre-emergence, flood test species, scale 0 to 10 (0 no effect, 10 complete control)) was 0 and the “Plant response rating, Goosegrass” value (goosegrass; [11]) was 75. The “Plant response rating, Goosegrass” value (goosegrass; [12]) was 85, the “Plant response rating, Goosegrass” value (goosegrass; [13]) was 95 and the “Plant response rating, Goosegrass” value (goosegrass; [14]) was 100. For the same molecule, the “Plant response rating, Goosegrass” value (goosegrass; Rate 250 g/ha) was 100, the “Plant response rating, Goosegrass” value (goosegrass; Rate 500 g/ha) was 100 and the “Plant response rating, Johnsongrass” value (Johnson grass; [11]) was 10. The “Plant response rating, Johnsongrass” value (Johnson grass; [12]) was 40, the “Plant response rating, Johnsongrass” value (Johnson grass; [13]) was 40 and the “Plant response rating, Johnsongrass” value (Johnson grass; [14]) was 85. For the same molecule, the “Plant response rating, Johnsongrass” value (Johnson grass; Rate 250 g/ha) was 98, the “Plant response rating, Johnsongrass” value (Johnson grass; Rate 500 g/ha) was 100 and the “Plant response rating, Sandbur” value (sandbur; [11]) was 0. For the same molecule, the “Plant response rating, Sandbur” value (sandbur; [12]) was 0, the “Sandbur plant response rating” value (sandbur; [13]) was 0 and the “Sandbur plant response rating” value (sandbur; [14]) was 90. For the same molecule, the “Plant response rating, Sandbur” value (sandbur; Rate 250 g/ha) was 100, the “Plant response rating, Sandbur” value (sandbur; Rate 500 g/ha) was 100 and the “Plant response rating, Tall Mallow” value (tall mallow; [11]) was 0. For the same molecule, the “Plant response rating, Tall Mallow” value (tall mallow; [12]) was 0, the “Tall Mallow plant response rating” value (tall mallow; [13]) was 0 and the “Tall Mallow plant response rating” value (tall mallow; [14]) was 0. For the same molecule, the “Plant response rating, Tall Mallow” value (tall mallow; Rate 250 g/ha) was 60, the “Plant response rating, Tall Mallow” value (tall mallow; Rate 500 g/ha) was 85 and the “Plant response rating, Wheat (winter)” value (winter wheat [2]; Rate 31 g/ha, 0 no effect, 100 complete control) was 55. For the same molecule, the “Plant response rating, Wheat (winter)” value (winter wheat [2]; Rate 62 g/ha) was 65, the “Plant response rating, Wheat (winter)” value (winter wheat [2]; Rate 125 g/ha, 0 is no effect, 100 is complete control) was 10 and the “Wheat (winter) plant response rating” value (winter wheat [2]; Rate 250 g/ha, 0 to 100 scale where 0 is no effect and 100 is complete control) was 10. For the same molecule, the “Plant response rating, Wheat (winter)” value (winter wheat [2]; Rate 500 g/ha, 0 is no effect, 100 is complete control) was 90, the “Plant response rating, Blackgrass” value (blackgrass; [15]) was 55 and the “Plant response rating, Blackgrass” value (blackgrass; [16]) was 70. The “Plant response rating, Blackgrass” value (blackgrass; [17]) was 95, the “Blackgrass plant response rating (0 to 100 scale)” value (blackgrass; Rate 250 g/ha) was 100 and the “Plant response rating, Blackgrass” value (blackgrass; [18]) was 98. The “Plant response rating, Green foxtail” value (green foxtail; [15]) was 50, the “Plant response rating, Green foxtail” value (green foxtail; [17]) was 70 and the “Green foxtail plant response rating (0 to 100 scale)” value (green foxtail; Rate 250 g/ha) was 98. The “Plant response rating, Green foxtail” value (green foxtail; [18]) was 100, the “Plant response rating, I. Ryegrass” value (Italian ryegrass; [15]) was 65 and the “Plant response rating, I. Ryegrass” value (Italian ryegrass; [16]) was 70. The “Plant response rating, I. Ryegrass” value (Italian ryegrass; [17]) was 95, the “I. Ryegrass plant response rating (0 to 100 scale)” value (Italian ryegrass; Rate 250 g/ha) was 98 and the “Plant response rating, I. Ryegrass” value (Italian ryegrass; [18]) was 100. For the same molecule, the “Plant response rating, Wheat (winter)” value (winter wheat [3]; [15]) was 30, the “Plant response rating, Wheat (winter)” value (winter wheat [3]; [16]) was 40 and the “Plant response rating, Wheat (winter)” value (winter wheat [3]; [17]) was 65. The “Wheat (winter) plant response rating (0 to 100 scale)” value (winter wheat [3]; Rate 250 g/ha) was 55, the “Plant response rating, Wheat (winter)” value (winter wheat [3]; [18]) was 95 and the “Plant response rating, Wild oat” value (wild oat [4]; [15]) was 50. The “Plant response rating, Wild oat” value (wild oat [4]; [16]) was 60, the “Plant response rating, Wild oat” value (wild oat [4]; [17]) was 60 and the “Wild oat plant response rating (0 to 100 scale)” value (wild oat [4]; Rate 250 g/ha) was 98. For the same molecule, the “Plant response rating, Wild oat” value (wild oat [4]; [18]) was 100, the “Plant response rating, Barley (winter)” value (winter barley; [15]) was 30 and the “Plant response rating, Barley (winter)” value (winter barley; [16]) was 30. For the same molecule, the “Plant response rating, Barley (winter)” value (winter barley; [17]) was 40, the “Barley (winter) plant response rating (0 to 100 scale)” value (winter barley; Rate 250 g/ha) was 60 and the “Plant response rating, Barley (winter)” value (winter barley; [18]) was 85.
